Where two headings read alike, the source gives them in different places. Positions of bridges follow the written chain, without caps; N, C: chain ends. Non-standard residues stand in square brackets, D forms with d. Residues, ends and D or L forms follow the SMILES beside them. ξ: configuration not given here. NMeNle = CCCC[C@H](NC)C(=O)O; NMeA = CN[C@@H](C)C(=O)O; ξP = O=C(O)C1CCCN1
Columns and labels:
Hu PD-L1/PD-1 = Hu PD-L1/PD-1 (Homo sapiens, UniProt Q9NZQ7); experiment: Cell binding assay Hu PD-L1/PD-1 (Tables 11-13, cell line not given); type: cell-based; conditions: Table 11
Sequence of Hu PD-L1/PD-1 (Q9NZQ7 19-290): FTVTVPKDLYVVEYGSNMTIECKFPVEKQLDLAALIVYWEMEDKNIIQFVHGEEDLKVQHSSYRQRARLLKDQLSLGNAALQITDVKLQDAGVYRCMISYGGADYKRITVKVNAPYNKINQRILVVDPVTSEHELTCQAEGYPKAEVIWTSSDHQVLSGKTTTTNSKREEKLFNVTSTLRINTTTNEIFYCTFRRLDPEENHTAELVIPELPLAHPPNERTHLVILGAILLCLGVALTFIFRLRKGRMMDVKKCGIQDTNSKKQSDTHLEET
Summary of the method: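 Three formats. In the L2987 imaging assay, natively PD-L1-expressing cells received inhibitor and PE-PD-1-Ig for 1 h at 37 °C, followed by fixation and nuclear Hoechst staining. In the flow-cytometry assays, LK35.2 cells overexpressing hPD-L1 were pre-treated 15 min with inhibitor, then bound 2 nM PE-PD-1-Ig for 1 h at RT in RPMI/2% FCS, while Jurkat-PD-1 cells bound PE-PD-L1-Ig.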

CMV-specific T cells = conditions: read-out: EC50, IFNγ secretion by CMV-specific T cells; FIG. 10A-C
Human PD-L1/PD-1 = target: T1, Human PD-L1/PD-1 (Homo sapiens, UniProt Q9NZQ7); experiment: HTRF PD-1-Ig/PD-L1-His binding assay (human PD-L1); conditions: read-out: HTRF Human PD-L1/PD-1 Binding Assay IC50
T1 construct: made in house; host or cells: HEK293T
T1 sequence (Q9NZQ7 with tags, fused parts or gaps): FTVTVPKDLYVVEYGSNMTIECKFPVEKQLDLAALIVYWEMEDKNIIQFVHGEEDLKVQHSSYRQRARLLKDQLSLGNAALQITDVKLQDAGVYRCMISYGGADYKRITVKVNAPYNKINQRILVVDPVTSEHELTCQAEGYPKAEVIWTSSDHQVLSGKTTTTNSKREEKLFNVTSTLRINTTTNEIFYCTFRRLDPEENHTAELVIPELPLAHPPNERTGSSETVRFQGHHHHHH
Summary of the method: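 Soluble PD-1-Ig binding to PD-L1-His measured by HTRF in dPBS with 0.1% BSA and 0.05% Tween-20. Detection used europium cryptate anti-Ig antibody (1 nM final) and APC anti-His antibody (20 nM final) added on top of the binding reaction.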

Structure (SMILES) | IC50 (Hu PD-L1/PD-1) | EC50 (CMV-specific T cells) | IC50 (Human PD-L1/PD-1; Table 6) | IC50 (Human PD-L1/PD-1; Table 9, Compound No. 71 variant macrocyclic peptides)
CCCC[C@H]1C(=O)N(C)[C@@H](CCCC)C(=O)N[C@@H](CC(C)C)C(=O)N[C@H](C(=O)NCC(N)=O)CSCC(=O)N[C@@H](Cc2ccccc2)C(=O)N(C)[C@@H](C)C(=O)N[C@@H](CC(N)=O)C(=O)N2CCCC2C(=O)N[C@@H](Cc2cnc[nH]2)C(=O)N[C@@H](Cc2c[nH]cn2)C(=O)N[C@@H](CO)C(=O)N[C@@H](Cc2c[nH]c3ccccc23)C(=O)N[C@@H](CCCNC(=N)N)C(=O)N[C@@H](Cc2c[nH]c3ccccc23)C(=O)N1C (stereo partly drawn) [Compound No. 2] ({CH2CO}-F[NMeA]N[ξP]HHSWRW[NMeNle][NMeNle]LCG-NH2; thioether N-14) | 43 nM | 400 nM |  | 
CCCC[C@H]1C(=O)N(C)CC(=O)N[C@@H](CC(=O)O)C(=O)N[C@@H](C(C)C)C(=O)N(C)[C@@H](Cc2ccccc2)C(=O)N[C@@H](Cc2ccc(O)cc2)C(=O)N(C)CC(=O)N[C@@H](Cc2c[nH]c3ccccc23)C(=O)N[C@@H](Cc2ccc(O)cc2)C(=O)N[C@@H](CC(C)C)C(=O)N[C@H](C(=O)NCC(N)=O)CSCC(=O)N[C@@H](Cc2ccccc2)C(=O)N(C)[C@@H](Cc2ccccc2)C(=O)N1C [Compound No. 71] (HELM PEPTIDE1{[O=C(C[*:3])[*:2]].F.[meF].[CCCC[C@@H](C(=O)[*:2])N(C)[*:1]].[Sar].D.V.[meF].Y.[Sar].W.Y.L.C.G.[am]}$PEPTIDE1,PEPTIDE1,1:R3-14:R3$$$V2.0) | 10 nM | 300 nM | 7 nM | 7 nM

Source: patent US9850283B2, “Macrocyclic inhibitors of the PD-1/PD-L1 and CD80(B7-1)/PD-L1 protein/protein interactions” (BRISTOL-MYERS SQUIBB COMPANY, priority 2013, dated 2017)
